1 molecule from PMC11449324, “Functional comparison of human and murine equilibrative nucleobase transporter 1” (PLOS ONE, 2024) can be followed below.

Experiment [1] has as its target T1, hENBT1 (SLC43A3-encoded human ENBT1) (Homo sapiens, UniProt Q8NBI5).
T1 construct: Oligonucleotides corresponding to the coding region of SLC43A3 (NM_001278201) or slc43a3 (NM_021398); expressed in transfected cells; HEK293-hSLC43A3
T1 sequence (Q8NBI5 1-491): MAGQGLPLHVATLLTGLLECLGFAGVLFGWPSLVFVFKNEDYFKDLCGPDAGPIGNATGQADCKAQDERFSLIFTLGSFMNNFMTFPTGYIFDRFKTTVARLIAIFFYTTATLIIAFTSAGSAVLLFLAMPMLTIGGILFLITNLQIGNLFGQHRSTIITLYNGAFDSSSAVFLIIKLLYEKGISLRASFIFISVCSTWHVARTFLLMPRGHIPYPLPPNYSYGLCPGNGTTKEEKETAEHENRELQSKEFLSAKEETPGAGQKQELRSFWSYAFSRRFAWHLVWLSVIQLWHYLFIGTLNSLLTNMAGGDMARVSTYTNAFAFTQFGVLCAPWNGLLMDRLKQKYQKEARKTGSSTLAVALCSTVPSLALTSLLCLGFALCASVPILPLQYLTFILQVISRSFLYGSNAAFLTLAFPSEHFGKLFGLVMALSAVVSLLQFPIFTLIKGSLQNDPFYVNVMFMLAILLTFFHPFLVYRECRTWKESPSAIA
Kind of experiment: Radiolabelled substrate uptake (oil-stop, 2 s) in HEK293-hSLC43A3 cells. It is filed as cell-based. The method, then:
Harvested cells were suspended in nominally sodium-free N-methyl-D-glucamine (NMG) buffer (140 mM NMG, 5 mM KCl, 4.2 mM KHCO3, 0.36 mM K2HPO4, 0.44 mM KH2PO4, 0.5 mM MgCl2, 1.3 mM CaCl2, 10 mM HEPES, pH 7.4), to minimize potential contribution of sodium-dependent concentrative nucleoside transporter-mediated uptake. Additionally, cells were incubated for 15 minutes at room temperature with 10 μM dipyridamole (DY), an equilibrative nucleoside transporter (ENT) inhibitor, to block equilibrative nucleoside transporter–mediated uptake. The substrate uptake assay was initiated by adding 250 μL cell suspension to 250 μL [^3H] labeled substrate, layered over 21:4 silicone:mineral oil (200 μL) in 1.5 mL microcentrifuge tubes (conducted at room temperature). The uptake reaction was terminated after 2 seconds by centrifugation of the cells through the oil layer at ~10,000 g. […] The resulting cell pellet was digested in 250 μL 1 M NaOH overnight (~16 hours), with 220 μL aliquots of digested cells assessed for radioactive content using standard liquid scintillation counting techniques in a Beckman Coulter LS6500 scintillation system (Brea, CA).
In transfected-HEK293 cell lines, total uptake was defined as uptake of radiolabeled substrate in cells overexpressing recombinant hENBT1 or mENBT1. […] ENBT1-mediated uptake was calculated as total uptake minus the non-mediated uptake. […]

Another experiment relates to HEK293-EV cells. Kind of experiment: MTT cell viability assay, HEK293-EV. It is filed as cell-based, human. The settings on record: Homo sapiens, 48 h, first-phase EC50 where biphasic. The procedure: (§1) Transfected-HEK293, MOLT-4, and L1210 cells were seeded into 24-well plates at a density of 1.1x10^5 cells per well in complete culture medium. […] Medium containing no cells was used to determine spontaneous MTT reduction (background). In transfected-HEK293 cells, media was removed via a vacuum-powered aspirator and replaced with 150 μL of Dulbecco’s phosphate buffered saline (DPBS—137 mM NaCl, 2.7 mM KCl, 6.3 mM Na2HPO4, 1.5 mM KH2PO4, 0.5 mM MgCl2, 0.9 mM CaCl2, pH 7.4) containing MTT (1 mg/mL) for 90 minutes at 37°C. In MOLT-4 and L1210, cell suspension was transferred to 1.5 mL microcentrifuge tubes and centrifuged for 10 minutes at 3000 rcf. Following centrifugation, media was removed via gentle pipetting and replaced with 150 μL of DPBS containing MTT (1 mg/mL) for 90 minutes at 37°C. Microcentrifuge tubes were centrifuged again for 15 minutes at 23,500 rcf, and then DPBS containing MTT was removed via a vacuum-powered aspirator. The resultant formazan crystals were solubilized in 500 μL of DMSO and transferred to a 96-well plate in 200 μL duplicates. Absorbance was measured at 570 nm, in a SpectraMax® i3x Multi-Mode Detection Platform (Molecular Devices, San Jose, CA). After background subtraction, % cell viability was calculated as the ratio of absorbance in the presence of test compound to that measured with vehicle alone (X 100).

The next experiment deals with HEK293-hSLC43A3 cells. Kind of experiment: MTT cell viability assay, HEK293-hSLC43A3. It is filed as cell-based, human. The method, then: as §1
The next experiment deals with HEK293-mslc43a3 cells. Kind of experiment: MTT cell viability assay, HEK293-mslc43a3. It is filed as cell-based, human. The method, then: as §1
In the next experiment the test system is L1210 cells. Kind of experiment: MTT cell viability assay, L1210. It is filed as cell-based, murine. The settings on record: Mus musculus, L1210, 48 h, single-phase curve. The procedure:
as §1

Each structure is given as a SMILES string.

Take `Sc1ncnc2nc[nH]c12` [6-MP, 6-Mercaptopurine]: the “6-MP Km relative to adenine Km” value in experiment [1] is 3 fold. For the same molecule, the “6-MP Vmax relative to adenine Vmax” value in experiment [1] is given as 3 fold. The EC50 with HEK293-EV cells was found to be 18800 ± 510 nM; in the experiment on HEK293-hSLC43A3 cells (Homo sapiens, HEK293-hSLC43A3, 48 h, MTT, first-phase EC50 where biphasic), 990 ± 90 nM; with HEK293-mslc43a3 cells (Homo sapiens, HEK293-mslc43a3, 48 h, MTT, first-phase EC50 where biphasic), 960 ± 280 nM; with L1210 cells, 600 ± 200 nM. Further, the “shift in EC50 (increased sensitivity) relative to HEK293-EV cells” value in the experiment on HEK293-hSLC43A3 cells (HEK293-hSLC43A3 vs HEK293-EV) and in the experiment with HEK293-mslc43a3 cells (HEK293-mslc43a3 vs HEK293-EV) was 19 fold in each case.
